In general, AC50 refers to the concentration at which the activity in the assay is half-maximal.

Assay [1] in a line: A cytotoxicity screen of small molecule inhibitors of the PhoP region in Salmonella typhi identified in the primary screen. [Related pubchem assays: 1850, 1864, 1985 ]. Format: functional.
For a further assay, the target named is Cytochrome P450 2D6 (Homo sapiens, UniProt P10635).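 Further: CYP2D6 member of a cytochrome P450 panel assay.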
Assay [2] addresses T1, Cytochrome P450 2C9 (Homo sapiens, UniProt P11712). The conditions noted are these: Potency.
In assay [3] the target is T1, Cytochrome P450 2C9.
The target of the next assay is Cytochrome P450 3A4 (Homo sapiens, UniProt P08684). Particulars: Potency.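 Further: confirmatory qHTS run detecting inhibitors and substrates of CYP3A4.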
Sequence of Cytochrome P450 3A4 (P08684 whole entry): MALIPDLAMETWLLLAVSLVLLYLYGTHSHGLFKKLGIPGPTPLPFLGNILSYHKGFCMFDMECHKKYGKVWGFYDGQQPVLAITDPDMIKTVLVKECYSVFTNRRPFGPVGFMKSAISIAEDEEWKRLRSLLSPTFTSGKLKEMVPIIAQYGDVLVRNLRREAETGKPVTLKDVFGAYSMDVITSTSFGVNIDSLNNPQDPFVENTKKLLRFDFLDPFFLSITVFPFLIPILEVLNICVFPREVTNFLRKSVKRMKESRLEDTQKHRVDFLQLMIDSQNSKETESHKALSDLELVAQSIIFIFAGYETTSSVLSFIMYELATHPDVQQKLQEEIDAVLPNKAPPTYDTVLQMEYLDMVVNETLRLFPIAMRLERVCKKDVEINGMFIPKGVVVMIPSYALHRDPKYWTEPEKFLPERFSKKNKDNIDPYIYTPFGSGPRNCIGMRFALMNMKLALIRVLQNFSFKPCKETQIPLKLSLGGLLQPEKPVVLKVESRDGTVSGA
Assay [4] deals with Voltage-dependent T-type calcium channel subunit alpha-1H (Homo sapiens, UniProt O95180). Format: functional.
Sequence of Voltage-dependent T-type calcium channel subunit alpha-1H (O95180 whole entry, the tested form may be a part): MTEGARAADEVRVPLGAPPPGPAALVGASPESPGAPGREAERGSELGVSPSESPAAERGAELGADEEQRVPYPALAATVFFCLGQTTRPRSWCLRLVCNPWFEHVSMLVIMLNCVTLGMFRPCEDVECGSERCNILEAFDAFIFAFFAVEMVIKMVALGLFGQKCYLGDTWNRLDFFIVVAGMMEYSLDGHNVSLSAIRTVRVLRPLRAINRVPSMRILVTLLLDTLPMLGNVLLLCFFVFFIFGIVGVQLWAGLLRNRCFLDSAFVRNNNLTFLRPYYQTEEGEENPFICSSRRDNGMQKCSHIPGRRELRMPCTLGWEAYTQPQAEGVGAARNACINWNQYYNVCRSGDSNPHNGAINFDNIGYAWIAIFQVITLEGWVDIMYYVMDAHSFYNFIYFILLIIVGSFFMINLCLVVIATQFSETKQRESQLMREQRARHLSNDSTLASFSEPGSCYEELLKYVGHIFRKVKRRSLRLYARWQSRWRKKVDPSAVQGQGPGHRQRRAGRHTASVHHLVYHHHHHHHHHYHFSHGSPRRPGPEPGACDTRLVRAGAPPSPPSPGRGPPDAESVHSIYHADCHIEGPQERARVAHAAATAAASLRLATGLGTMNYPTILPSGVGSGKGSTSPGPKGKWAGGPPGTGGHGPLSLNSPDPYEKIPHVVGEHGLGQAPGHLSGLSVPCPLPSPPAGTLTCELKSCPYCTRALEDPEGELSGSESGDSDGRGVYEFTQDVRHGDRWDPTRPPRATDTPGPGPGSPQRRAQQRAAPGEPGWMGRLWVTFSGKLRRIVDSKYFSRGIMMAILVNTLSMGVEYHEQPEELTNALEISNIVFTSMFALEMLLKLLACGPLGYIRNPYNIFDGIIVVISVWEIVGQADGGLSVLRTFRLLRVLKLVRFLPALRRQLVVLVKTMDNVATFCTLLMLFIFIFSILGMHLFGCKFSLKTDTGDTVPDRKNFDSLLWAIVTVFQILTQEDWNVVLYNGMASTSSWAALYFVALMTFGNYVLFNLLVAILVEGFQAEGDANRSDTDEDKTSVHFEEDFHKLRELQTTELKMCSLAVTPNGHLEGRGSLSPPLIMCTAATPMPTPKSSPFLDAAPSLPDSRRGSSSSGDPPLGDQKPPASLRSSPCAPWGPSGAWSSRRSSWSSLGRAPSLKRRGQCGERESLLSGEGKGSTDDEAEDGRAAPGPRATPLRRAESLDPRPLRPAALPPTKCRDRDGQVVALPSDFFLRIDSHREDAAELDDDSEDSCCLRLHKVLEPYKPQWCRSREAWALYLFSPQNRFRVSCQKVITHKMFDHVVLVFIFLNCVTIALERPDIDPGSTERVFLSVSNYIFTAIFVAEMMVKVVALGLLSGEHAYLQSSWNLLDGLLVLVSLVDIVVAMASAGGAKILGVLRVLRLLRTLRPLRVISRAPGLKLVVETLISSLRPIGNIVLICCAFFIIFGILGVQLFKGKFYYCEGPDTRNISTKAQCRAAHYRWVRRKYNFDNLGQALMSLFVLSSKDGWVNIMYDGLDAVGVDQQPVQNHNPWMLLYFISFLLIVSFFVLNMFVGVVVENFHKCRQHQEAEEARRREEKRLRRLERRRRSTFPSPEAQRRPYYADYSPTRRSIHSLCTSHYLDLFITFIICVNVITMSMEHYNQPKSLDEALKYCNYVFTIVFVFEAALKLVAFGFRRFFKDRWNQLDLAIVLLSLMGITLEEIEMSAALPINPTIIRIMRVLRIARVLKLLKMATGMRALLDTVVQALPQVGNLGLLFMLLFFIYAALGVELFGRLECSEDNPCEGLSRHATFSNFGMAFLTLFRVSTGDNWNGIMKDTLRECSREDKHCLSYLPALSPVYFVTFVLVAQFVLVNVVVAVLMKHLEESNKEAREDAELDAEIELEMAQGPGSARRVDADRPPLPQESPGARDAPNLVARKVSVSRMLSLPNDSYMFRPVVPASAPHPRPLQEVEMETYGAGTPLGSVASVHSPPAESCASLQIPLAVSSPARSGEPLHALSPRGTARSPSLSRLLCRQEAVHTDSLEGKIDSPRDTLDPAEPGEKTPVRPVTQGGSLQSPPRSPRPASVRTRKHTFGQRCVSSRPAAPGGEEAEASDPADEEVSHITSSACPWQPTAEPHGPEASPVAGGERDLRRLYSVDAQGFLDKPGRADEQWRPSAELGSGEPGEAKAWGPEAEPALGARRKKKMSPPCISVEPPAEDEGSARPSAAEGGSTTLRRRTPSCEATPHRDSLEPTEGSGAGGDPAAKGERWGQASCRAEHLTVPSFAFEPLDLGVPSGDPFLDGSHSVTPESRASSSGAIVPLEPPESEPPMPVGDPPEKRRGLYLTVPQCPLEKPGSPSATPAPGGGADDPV
For assay [5], the target named is T2, Carboxy-terminal domain RNA polymerase II polypeptide A small phosphatase 1 (Homo sapiens, UniProt Q9GZU7).
T2 sequence (Q9GZU7 whole entry): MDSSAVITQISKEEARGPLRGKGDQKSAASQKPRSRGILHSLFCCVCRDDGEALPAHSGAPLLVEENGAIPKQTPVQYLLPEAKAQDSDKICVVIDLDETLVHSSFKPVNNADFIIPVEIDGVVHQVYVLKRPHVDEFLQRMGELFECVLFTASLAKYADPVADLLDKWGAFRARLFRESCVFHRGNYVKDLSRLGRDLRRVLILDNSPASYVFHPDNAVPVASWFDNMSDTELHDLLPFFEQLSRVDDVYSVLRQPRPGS
As to the kind of experiment: CTDSP1 inhibitors, concentration-response, biochemical, absorbance readout, ultra-high-throughput screen actives (AID 540297). Format: functional.

Assay [6] addresses Eukaryotic translation initiation factor 4E (Mus musculus, UniProt P63073). As to the kind of experiment: blockers of eIF4G binding by eIF4E – biochemical, TR-FRET, dose response (AID 855).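 Further: potency for disrupting eIF4E binding to eIF4GI seen as loss of FRET.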 Format: functional. (In general: Time-resolved FRET reads energy transfer from a long-lived donor to a nearby acceptor.)
In assay [7] the target is T3, Corticotropin-releasing factor receptor 2/Corticotropin-releasing factor-binding protein (Homo sapiens, UniProt P24387+Q13324).
T3 sequence (Q13324 whole entry): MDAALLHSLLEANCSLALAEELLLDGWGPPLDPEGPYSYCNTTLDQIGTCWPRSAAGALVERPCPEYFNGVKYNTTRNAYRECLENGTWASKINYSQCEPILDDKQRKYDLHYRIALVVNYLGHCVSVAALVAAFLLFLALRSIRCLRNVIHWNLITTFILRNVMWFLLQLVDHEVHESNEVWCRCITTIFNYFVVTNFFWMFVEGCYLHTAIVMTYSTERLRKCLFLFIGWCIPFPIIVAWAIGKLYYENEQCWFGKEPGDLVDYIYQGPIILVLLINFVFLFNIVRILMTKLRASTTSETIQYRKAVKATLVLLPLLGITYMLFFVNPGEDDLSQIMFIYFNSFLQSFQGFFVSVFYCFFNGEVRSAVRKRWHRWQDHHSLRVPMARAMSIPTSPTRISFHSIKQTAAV
T3 sequence (P24387 whole entry): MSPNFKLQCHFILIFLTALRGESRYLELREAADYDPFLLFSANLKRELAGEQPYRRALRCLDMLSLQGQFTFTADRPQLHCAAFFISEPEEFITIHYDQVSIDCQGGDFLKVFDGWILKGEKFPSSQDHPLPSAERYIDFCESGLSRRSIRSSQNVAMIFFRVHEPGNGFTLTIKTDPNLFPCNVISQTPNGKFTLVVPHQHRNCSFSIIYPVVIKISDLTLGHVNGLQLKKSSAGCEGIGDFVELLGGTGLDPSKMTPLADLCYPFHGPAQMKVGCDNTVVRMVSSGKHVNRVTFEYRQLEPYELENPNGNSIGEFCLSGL
As to the kind of experiment: activators of CRF receptor 2 with binding protein – uHTS hits, confirmation (AID 602473). Particulars: read-out: EC50_Mean. Format: functional.

Assay [8] has as its target T3, Corticotropin-releasing factor receptor 2/Corticotropin-releasing factor-binding protein. Put plainly: Dose Response confirmation of uHTS hits for small molecule antagonists of the CRF-binding protein and CRF-R2 receptor complex. Format: functional. Particulars: read-out: IC50_Mean.
A short description of assay [9]: Trypanosoma cruzi growth suppression in host cells – NIH3T3 host cells, beta-gal luminescence, confirmation (AID 2044).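 Further: intracellular parasites grown in NIH/3T3 mouse fibroblasts as host cells; luminescent beta-galactosidase reporter signal from transgenic T. cruzi replicating inside host cells; inhibitors lower the luminescence signal.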 Format: functional, cell-based.
Assay [10] is described as follows: NIH3T3 cell viability loss – ATP luminescence, mouse fibroblasts, counter-screen, dose response (AID 2010).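 Further: cells exposed to compound for about 90 hours before reading.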 Format: functional, cell-based. On the technique in general: A counterscreen serves to expose hits that act by an unwanted route or on another target.
The target in assay [11] is FAD-linked sulfhydryl oxidase ALR (Homo sapiens, UniProt P55789). As to the kind of experiment: ALR-catalysed DTT oxidation blockers – biochemical, H2O2 detection, luminescence, cherry-pick, dose response (AID 493248).
Sequence of FAD-linked sulfhydryl oxidase ALR (P55789 whole entry): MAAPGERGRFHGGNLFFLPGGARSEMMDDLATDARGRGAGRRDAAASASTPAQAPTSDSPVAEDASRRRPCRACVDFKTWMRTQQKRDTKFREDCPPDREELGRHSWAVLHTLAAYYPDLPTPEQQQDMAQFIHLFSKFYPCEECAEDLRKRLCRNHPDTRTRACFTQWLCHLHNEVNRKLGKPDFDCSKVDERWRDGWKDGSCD
Assay [12] deals with Melanin-concentrating hormone receptor 1 (Homo sapiens, UniProt Q99705). Put plainly: Fluorescence-based counterscreen for antagonists of the G-protein coupled receptor 7 (GPR7): cell-based high throughput dose response assay to identify antagonists of the melanin-concentrating hormone receptor 1 (MCHR1). Format: functional.
Sequence of Melanin-concentrating hormone receptor 1 (Q99705 whole entry): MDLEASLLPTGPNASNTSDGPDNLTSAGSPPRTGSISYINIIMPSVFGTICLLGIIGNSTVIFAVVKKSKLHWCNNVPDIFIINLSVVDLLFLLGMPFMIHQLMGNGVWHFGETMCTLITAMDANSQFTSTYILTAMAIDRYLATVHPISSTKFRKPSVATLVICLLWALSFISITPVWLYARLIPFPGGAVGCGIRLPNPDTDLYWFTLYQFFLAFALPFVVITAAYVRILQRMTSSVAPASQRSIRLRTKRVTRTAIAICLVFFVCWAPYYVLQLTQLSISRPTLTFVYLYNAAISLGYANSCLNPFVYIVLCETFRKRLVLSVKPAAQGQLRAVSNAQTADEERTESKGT
In assay [13] the target is T4, Sentrin-specific protease 8 (Homo sapiens, UniProt Q96LD8).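 Further: luminescence read-out of SENP8 inhibition, dose-response confirmation following an ultra-high-throughput screen.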
T4 sequence (Q96LD8 whole entry): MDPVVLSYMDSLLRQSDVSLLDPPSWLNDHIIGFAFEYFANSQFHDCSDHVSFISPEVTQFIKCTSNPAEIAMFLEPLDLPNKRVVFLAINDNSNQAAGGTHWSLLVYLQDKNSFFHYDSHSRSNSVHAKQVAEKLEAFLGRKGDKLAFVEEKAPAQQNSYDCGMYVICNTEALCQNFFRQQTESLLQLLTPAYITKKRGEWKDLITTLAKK
Format: functional.

The target in assay [14] is T5, Sentrin-specific protease 7 (Homo sapiens, UniProt Q9BQF6).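 Further: Luminescence-based dose-response confirmation of ultra-high-throughput screening hits, measuring inhibition of SENP7.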
T5 sequence (Q9BQF6 whole entry): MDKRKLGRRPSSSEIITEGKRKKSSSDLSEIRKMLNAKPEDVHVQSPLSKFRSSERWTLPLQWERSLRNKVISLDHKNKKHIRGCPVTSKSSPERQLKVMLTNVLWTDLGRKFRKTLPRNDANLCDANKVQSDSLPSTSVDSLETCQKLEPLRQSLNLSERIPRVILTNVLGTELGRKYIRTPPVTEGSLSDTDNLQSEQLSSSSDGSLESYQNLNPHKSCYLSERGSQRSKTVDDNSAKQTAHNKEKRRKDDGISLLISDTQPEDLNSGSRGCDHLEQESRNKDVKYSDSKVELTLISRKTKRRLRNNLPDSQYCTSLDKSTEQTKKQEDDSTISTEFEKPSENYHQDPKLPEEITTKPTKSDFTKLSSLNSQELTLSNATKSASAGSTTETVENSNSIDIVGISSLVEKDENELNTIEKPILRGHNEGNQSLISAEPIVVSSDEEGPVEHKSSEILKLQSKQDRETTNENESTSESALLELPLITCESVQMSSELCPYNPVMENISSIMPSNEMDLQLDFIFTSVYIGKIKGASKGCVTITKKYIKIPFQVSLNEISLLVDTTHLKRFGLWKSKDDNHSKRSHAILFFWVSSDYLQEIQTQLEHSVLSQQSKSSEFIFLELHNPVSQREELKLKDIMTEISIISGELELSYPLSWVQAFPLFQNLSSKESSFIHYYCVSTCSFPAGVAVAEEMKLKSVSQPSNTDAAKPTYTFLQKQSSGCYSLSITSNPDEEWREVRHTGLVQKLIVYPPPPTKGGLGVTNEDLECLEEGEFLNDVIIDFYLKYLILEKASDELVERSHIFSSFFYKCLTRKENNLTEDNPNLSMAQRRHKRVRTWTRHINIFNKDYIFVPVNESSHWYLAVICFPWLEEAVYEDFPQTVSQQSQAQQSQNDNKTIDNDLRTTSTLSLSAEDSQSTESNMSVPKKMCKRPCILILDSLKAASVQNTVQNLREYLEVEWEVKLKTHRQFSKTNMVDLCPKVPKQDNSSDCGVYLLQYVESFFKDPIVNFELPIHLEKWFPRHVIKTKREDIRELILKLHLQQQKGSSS
Format: functional.

A further assay has as its target T6, Caspase-3 (Homo sapiens, UniProt P42574).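 Further: Dose-response selectivity test against caspase-3 for candidate inhibitors of sentrin-specific proteases (SENPs).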
T6 sequence (P42574 whole entry): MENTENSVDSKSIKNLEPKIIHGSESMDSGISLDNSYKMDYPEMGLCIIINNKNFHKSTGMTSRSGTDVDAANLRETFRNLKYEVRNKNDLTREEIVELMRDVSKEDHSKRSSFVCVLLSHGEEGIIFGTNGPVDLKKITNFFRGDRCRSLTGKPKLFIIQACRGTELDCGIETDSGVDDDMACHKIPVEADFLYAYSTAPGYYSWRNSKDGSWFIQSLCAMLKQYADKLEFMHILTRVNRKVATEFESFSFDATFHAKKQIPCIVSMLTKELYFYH
Format: functional.

Assay [15] concerns the target T7, Sentrin-specific protease 6 (Homo sapiens, UniProt Q9GZR1).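 Further: Luminescence-based dose-response confirmatory assay of SENP6 inhibition, following up an ultra-high-throughput screen.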
T7 sequence (Q9GZR1 whole entry): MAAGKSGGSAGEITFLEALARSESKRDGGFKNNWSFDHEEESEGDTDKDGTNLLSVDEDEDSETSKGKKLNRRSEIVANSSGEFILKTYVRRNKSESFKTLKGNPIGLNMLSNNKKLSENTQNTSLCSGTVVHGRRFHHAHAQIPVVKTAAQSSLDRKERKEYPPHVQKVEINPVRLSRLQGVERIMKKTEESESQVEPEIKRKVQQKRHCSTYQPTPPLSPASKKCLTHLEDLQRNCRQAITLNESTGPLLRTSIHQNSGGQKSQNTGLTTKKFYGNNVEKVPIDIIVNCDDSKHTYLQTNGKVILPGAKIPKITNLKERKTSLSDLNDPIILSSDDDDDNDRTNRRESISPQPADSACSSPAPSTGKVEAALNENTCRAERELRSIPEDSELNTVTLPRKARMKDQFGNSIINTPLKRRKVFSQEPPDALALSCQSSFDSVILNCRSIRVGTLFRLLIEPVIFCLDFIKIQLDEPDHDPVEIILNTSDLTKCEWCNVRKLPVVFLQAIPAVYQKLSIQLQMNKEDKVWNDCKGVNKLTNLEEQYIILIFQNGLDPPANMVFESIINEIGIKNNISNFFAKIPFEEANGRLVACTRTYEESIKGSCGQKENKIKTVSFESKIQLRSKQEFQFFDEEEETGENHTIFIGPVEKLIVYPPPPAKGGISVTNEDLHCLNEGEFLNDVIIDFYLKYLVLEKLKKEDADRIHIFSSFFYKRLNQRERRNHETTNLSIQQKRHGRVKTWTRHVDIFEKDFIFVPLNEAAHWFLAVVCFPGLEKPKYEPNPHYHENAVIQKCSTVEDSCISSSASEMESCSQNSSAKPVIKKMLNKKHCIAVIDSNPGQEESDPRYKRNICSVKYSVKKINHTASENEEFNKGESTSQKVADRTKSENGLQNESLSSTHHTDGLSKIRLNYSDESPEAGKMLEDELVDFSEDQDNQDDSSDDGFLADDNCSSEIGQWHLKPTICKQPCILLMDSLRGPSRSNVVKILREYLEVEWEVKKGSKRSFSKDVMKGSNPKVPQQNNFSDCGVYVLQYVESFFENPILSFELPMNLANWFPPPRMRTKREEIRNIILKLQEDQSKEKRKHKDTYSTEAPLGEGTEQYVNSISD
Format: functional.

The nature of assay [16]: HIV-1 Vif–A3G interaction blockers – biochemical, TR-FRET, GST-Vif 1-94, biotin-A3G peptide, dose response retest, primary screen (AID 1117319).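 Further: TR-FRET signal of purified GST-Vif binding a biotinylated A3G peptide; inhibitors lower the FRET signal by blocking Vif and A3G binding.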 Format: functional.
The next assay deals with T8, Protein Tat (Human immunodeficiency virus type 1 group M subtype B (isolate HXB2)(HIV-1), UniProt P04608).
T8 sequence (P04608 whole entry): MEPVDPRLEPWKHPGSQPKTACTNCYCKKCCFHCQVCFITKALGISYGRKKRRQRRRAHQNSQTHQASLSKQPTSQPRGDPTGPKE
Format: functional.

Activity calls are given as the source filed them.

T1 sequence (P11712 whole entry): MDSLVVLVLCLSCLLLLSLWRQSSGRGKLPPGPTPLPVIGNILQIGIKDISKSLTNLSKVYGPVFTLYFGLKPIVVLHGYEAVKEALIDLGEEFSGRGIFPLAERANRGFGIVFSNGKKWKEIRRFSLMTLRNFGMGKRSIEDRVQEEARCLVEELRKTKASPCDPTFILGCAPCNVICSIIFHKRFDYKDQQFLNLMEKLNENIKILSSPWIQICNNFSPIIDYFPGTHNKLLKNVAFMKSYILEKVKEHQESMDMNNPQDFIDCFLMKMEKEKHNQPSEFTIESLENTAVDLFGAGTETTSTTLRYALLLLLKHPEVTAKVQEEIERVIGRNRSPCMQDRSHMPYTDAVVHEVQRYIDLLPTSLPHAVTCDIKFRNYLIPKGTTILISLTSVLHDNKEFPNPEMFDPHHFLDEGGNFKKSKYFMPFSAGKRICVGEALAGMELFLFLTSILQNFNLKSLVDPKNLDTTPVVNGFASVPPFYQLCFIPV
Sequence of Cytochrome P450 2D6 (P10635 whole entry): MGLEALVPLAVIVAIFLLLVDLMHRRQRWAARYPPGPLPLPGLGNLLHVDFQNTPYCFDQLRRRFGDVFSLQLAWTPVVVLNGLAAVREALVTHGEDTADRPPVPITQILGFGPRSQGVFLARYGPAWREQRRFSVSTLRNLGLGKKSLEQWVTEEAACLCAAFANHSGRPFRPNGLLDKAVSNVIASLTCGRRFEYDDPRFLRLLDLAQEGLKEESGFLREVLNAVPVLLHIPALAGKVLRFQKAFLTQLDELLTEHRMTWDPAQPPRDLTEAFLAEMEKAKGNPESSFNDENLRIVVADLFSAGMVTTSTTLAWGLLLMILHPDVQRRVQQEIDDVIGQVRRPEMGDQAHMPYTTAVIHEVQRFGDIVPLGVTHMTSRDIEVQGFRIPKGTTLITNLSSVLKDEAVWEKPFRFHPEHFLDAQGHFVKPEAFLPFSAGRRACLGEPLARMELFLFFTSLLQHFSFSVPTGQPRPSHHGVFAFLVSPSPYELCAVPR
Sequence of Eukaryotic translation initiation factor 4E (P63073 whole entry): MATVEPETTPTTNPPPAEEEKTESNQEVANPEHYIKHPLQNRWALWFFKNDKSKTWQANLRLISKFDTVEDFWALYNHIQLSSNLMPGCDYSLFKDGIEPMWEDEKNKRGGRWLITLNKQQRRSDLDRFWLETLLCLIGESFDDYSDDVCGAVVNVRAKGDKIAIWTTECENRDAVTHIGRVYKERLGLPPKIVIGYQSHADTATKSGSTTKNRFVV

As for `CC(C)C(c1nnnn1Cc1ccccc1)N(CCCO)Cc1cc2cc3c(cc2nc1O)OCO3` (stereo unspecified), in [1], the EC50 was > 50 µM (active).
In the case of `C[C@@H](/C=C\c1cccc(Oc2ccc(F)cc2)c1)N(O)C(N)=O`, the results for the AC50 on Cytochrome P450 2D6, on Cytochrome P450 2C9 [2] and on Cytochrome P450 2C9 [3] were 10 µM (inconclusive), 25.1 µM (inconclusive) and 31.6 µM (inconclusive), respectively.
As for `CC1CCC2C(=O)OC(CO)CN2C1c1ccc(Br)cc1` (stereo unspecified), the AC50 on Cytochrome P450 2C9 [2] was 3.98 µM (inconclusive); at Cytochrome P450 3A4 it was 3.16 µM (inconclusive).
As for `FC(F)(F)c1cc(C(F)(F)F)c2ccc(N3CCN(c4ccc(Cl)cc4)CC3)nc2n1`, in assay [4], the EC50 was 5.43 µM (active).
Consider `Cc1ccc([N+](=O)[O-])cc1NC(=O)Cc1cccs1`, for which the IC50 in [5] is 4.16 µM (active); in assay [6], 50 µM (inactive).
In the case of `Cc1ccccc1NC(=O)c1ccc(-c2ccc(Cl)cc2Cl)o1`, the EC50 in assay [7] is > 53 µM (inactive); in assay [4], 7.96 µM (active). Besides, the IC50 in [8] was > 47.1 µM (inactive).
Take `CCNc1nc(N)nc(Oc2ccc(OCCOc3ccc(Cl)cc3Cl)nn2)n1`: the EC50 is > 50 µM (active) in assay [1], 0.668 µM (active) in assay [9] and 6.72 µM (active) in [10].
For the molecule `CCn1c(CNc2ccc(Cl)cc2)nnc1SCCN1CCCCC1`, the concentration at half-maximal activity (AC50) in [11] was 8.49 µM (active). Also, the IC50 in assay [12] is given as 21.5 µM (not active).
In the case of `COc1ccc(/C=C/C(=O)c2ccccc2O)cc1`, the IC50 in [13] was 10.6 µM (active); in assay [14], 3.93 µM (active); at Caspase-3 it was 23.1 µM (active); in assay [15], 6 µM (active). Besides, at Cytochrome P450 2C9 [2], the AC50 is 3.98 µM (inconclusive).
As to `Cc1ccc(N2C(=O)[C@@H]3[C@H](C2=O)[C@H]2C=CC=NN2[C@@H]3C(=O)Nc2ccc(Cl)cc2)cc1`, the EC50 in assay [1] was > 50 µM (active). In addition, the IC50 (in [16]; on Protein Tat) was > 100 µM (active) in each case.
For `Cc1nn(Cc2c(F)c(F)c(F)c(F)c2F)c(C)c1NC(=O)c1ccc(COc2ccc(F)cc2)o1`, the EC50 in [4] was 4.88 µM (active).

Source of the values: ChEMBL document CHEMBL1201862, “PubChem BioAssay data set” (2004).
